Assay results: publication PMC12486385 (Virus Evolution, 2025)
No end group written: not given here.

Columns and labels:
[1] = Peptide precipitation / solubility under assay conditions; type: physicochemical
[2] = system: NTRs (IMP⍺1/2/3/5/7 and IMPβ1/2/3); test: Fluorescence polarization; type: binding, human; mouse (IMP⍺2); conditions: FP; poor peptide solubility
[3] = target: human importin beta 1 (hIMPβ1) (human, UniProt Q14974 1-876); test: fluorescence polarisation
human importin beta 1 (hIMPβ1), sequence (Q14974 whole entry): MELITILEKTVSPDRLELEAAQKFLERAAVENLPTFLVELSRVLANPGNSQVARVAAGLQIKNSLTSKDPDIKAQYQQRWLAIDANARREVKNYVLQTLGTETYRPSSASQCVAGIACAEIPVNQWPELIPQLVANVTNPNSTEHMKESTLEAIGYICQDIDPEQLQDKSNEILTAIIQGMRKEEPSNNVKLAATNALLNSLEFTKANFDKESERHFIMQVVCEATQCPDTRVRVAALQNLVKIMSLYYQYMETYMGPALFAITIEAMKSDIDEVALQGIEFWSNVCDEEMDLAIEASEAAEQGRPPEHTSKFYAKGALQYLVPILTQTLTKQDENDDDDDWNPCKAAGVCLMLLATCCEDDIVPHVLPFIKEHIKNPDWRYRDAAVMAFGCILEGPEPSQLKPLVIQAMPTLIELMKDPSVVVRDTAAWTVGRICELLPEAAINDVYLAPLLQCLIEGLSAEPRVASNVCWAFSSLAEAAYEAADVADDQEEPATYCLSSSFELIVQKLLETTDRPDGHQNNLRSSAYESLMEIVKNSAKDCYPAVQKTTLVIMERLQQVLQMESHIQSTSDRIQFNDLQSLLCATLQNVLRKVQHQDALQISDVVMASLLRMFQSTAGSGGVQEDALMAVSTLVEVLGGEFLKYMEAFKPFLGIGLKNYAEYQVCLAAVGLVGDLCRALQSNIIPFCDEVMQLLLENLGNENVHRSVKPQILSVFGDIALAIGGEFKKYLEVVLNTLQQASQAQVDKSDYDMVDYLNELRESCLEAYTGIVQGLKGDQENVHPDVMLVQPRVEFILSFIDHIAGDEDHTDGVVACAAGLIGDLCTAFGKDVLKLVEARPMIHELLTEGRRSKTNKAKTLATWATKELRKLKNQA

| Molecule | precipitation ([1]; EMSA conditions, 10 μM FITC-peptide, TB buffer) | solubility (in words) ([1]; FP conditions, 10 nM FITC-peptide, SEC buffer pH 8) | interaction with NTRs (in words) [2] | binding result [3] |
| --- | --- | --- | --- | --- |
| 27-RRWRRRPRRRRRPYRRRPYRRYGRRRKVRRR-57 [ORF1 NLSn] | consistently precipitated, suggesting poor solubility under assay conditions | poor peptide solubility | no interaction could be detected |  |
| YGRRRKVRRR (also: FITC-tagged, end not given here) [ORF1 NLSn_B peptide (TTDoV ORF1 residues 48-57, predicted monopartite cNLS)] |  |  |  | binds |
